Data reported in patent US5530097A, “Human cancer inhibitory peptide amides” (Arizona Board of Regents acting on behalf of Arizona State …, priority 1994, dated 1996).

Legend:
[1] = tested on: MX-1 Human Mammary Xenograft; assay: Experimental anticancer activity in murine in vivo systems (Tumor Regression); conditions: MX-1 (Tumor Regression)
A498 = assay: NCI in vitro mini panel, human cancer cell line growth inhibition; assay type: cell-based; conditions: Renal A498, 48 hrs
Protocol: (§1) ED50 (P388) and GI50 (HTCL) identify the drug dose which reduces the percent tumor/cell growth to 50%. There is no mathematical difference between ED50 and GI50, both of which are calculated using the same formula. The only difference is historical usage.
(§2) TGI, means "Total Growth Inhibition", and identifies the drug dose needed to yield zero percent growth, i.e. there are just as many cells at the end of the experiment as were present at the beginning. Whether just as many cells were killed as were produced (steady state), or no growth occurred (total inhibition) cannot be distinguished.
(§3) LC50, means "Lethal Concentration 50%", and identifies the drug concentration which reduces to one-half of the cells originally present at the beginning of the experiment.
(§4) Each drug is tested at five (5) doses: 100--10-1-0.1--0.01 μg/mL. Percent Growths are calculated for each dose. The two (or three) doses with growth values above, below, (or near to) 50% growth are used to calculate the ED50 /GI50 values using a linear regression computation. If no dose yields a growth value under 50%, the results are expressed as: ED50 >(highest dose). If no dose yields growth higher than 50% growth, then ED50 <(lowest dose). Similar calculations are performed for the TGI at 0% growth, and at -50% growth for the LC50.
(§5) At the start of each experiment, cells from the in vitro cell cultures are inoculated into the appropriate tubes or microtiter plates. One set of control tubes/plates is immediately counted to determine the number of cells at the start of the experiment. This is the "baseline count", or "Tzero reading". At the end of the experiment (48 hrs later), a second set of control tubes/plates is analyzed to determine the "Control Growth" value. The growth (or death) of cells relative to the initial quantity of cells is used to define the "Percent of Growth."
(§6) Similarly, the compounds disclosed herein have also been tested against an NCI in vitro mini panel. For each of six cell lines GI50, TGI, and LC50 amounts were calculated for each compound. Each compound was also tested against the PS-388 cell line and for this test an ED50 was calculated.
(§7) The protocols followed, for the NCI minipanel are, except for the number of cell lines, those established by M. R. Boyd Ph.D., and well known to those of ordinary skill in the art. The procedure followed for the test against PS-388 Leukemia is the same that was followed in the superseded NCI P-388 screening test, which is also well known to those having ordinary skill in the art.

KM20L2 = assay: as above; assay type: cell-based; conditions: Colon KM20L2, 48 hrs
Protocol: as §1, §2, §3, §4, §5, §6, §7

NCI-H460 = assay: as above; assay type: cell-based; conditions: Lung-NSC NCI-H460, 48 hrs
Protocol: as §1, §2, §3, §4, §5, §6, §7

OVCAR-3 = assay: as above; assay type: cell-based; conditions: Ovarian OVCAR-3, 48 hrs
Protocol: as §1, §2, §3, §4, §5, §6, §7

SF-295 = assay: as above; assay type: cell-based; conditions: CNS SF-295, 48 hrs
Protocol: as §1, §2, §3, §4, §5, §6, §7

SK-MEL-5 = assay: as above; assay type: cell-based; conditions: Melanoma SK-MEL-5, 48 hrs
Protocol: as §1, §2, §3, §4, §5, §6, §7

PS-388 = PS-388 mouse leukemia cell line test; assay type: cell-based; conditions: Mouse Leukemia PS-388
Protocol: as §1, §4, §5, §6, §7

Work on Dolastatin 10 yielded a T/C ([1]; 6.25 μg/kg) of 69, a T/C ([1]; 13 μg/kg) of 61 and a T/C ([1]; 26 μg/kg) of 50. For the same substance, the T/C ([1]; 52 μg/kg) was 14.

In the case of “L-Dolavalyl-L-Leucyl-N-methyl-(3R,4S,5S)-Dolaisoleuinyl-(2R,3R,4S)-Dolaproinyl-L-Proline N-2-benzothiazolamide [8f]”, the GI-50 (A498) is reported as > 0.01 µg/mL, the LC-50 (A498) is reported as > 0.01 µg/mL and the TGI (A498) is reported as > 0.01 µg/mL. The GI-50 (KM20L2) was 0.0074 µg/mL, the LC-50 (KM20L2) was > 0.01 µg/mL and the TGI (KM20L2) was > 0.01 µg/mL. For the same substance, the GI-50 (NCI-H460) was > 0.01 µg/mL, the LC-50 (NCI-H460) was > 0.01 µg/mL and the TGI (NCI-H460) was > 0.01 µg/mL. The GI-50 (OVCAR-3) was 0.0033 µg/mL, the LC-50 (OVCAR-3) was > 0.01 µg/mL and the TGI (OVCAR-3) was > 0.01 µg/mL. The GI-50 (SF-295) was > 0.01 µg/mL, the LC-50 (SF-295) was > 0.01 µg/mL and the TGI (SF-295) was > 0.01 µg/mL. For the same substance, the GI-50 (SK-MEL-5) was 0.0043 µg/mL, the LC-50 (SK-MEL-5) was > 0.01 µg/mL and the TGI (SK-MEL-5) was > 0.01 µg/mL. For the same substance, the ED-50 (PS-388) was 0.00405 µg/mL.

“L-Dolavalyl-L-Leucyl-N-methyl-(3R,4S,5S)-Dolaisoleuinyl-(2R,3R,4S)-Dolaproinyl-L-Phenylalanine N-4-chlorophenylamide [8d]” was tested, and the GI-50 (A498) was 0.00018 µg/mL, the LC-50 (A498) was > 0.01 µg/mL and the TGI (A498) was 0.0038 µg/mL. For the same substance, the GI-50 (KM20L2) was 0.000015 µg/mL, the LC-50 (KM20L2) was > 0.01 µg/mL and the TGI (KM20L2) was 0.0012 µg/mL. For the same substance, the GI-50 (NCI-H460) was 0.00032 µg/mL, the LC-50 (NCI-H460) was > 0.01 µg/mL and the TGI (NCI-H460) was 0.0011 µg/mL. The GI-50 (OVCAR-3) was 0.0000085 µg/mL, the LC-50 (OVCAR-3) was > 0.01 µg/mL and the TGI (OVCAR-3) was 0.00023 µg/mL. For the same substance, the GI-50 (SF-295) was 0.00034 µg/mL, the LC-50 (SF-295) was > 0.01 µg/mL and the TGI (SF-295) was > 0.01 µg/mL. For the same substance, the GI-50 (SK-MEL-5) was 0.0000051 µg/mL, the LC-50 (SK-MEL-5) was > 0.01 µg/mL and the TGI (SK-MEL-5) was > 0.01 µg/mL. The ED-50 (PS-388) was 0.0000025 µg/mL.
